Test results as given in paper PMC4492822 (EMBO Molecular Medicine, 2015).

Legend:
[1] = tested on: HAPI cells; assay type: cell-based, rat
Method: Figure 5 Toxicity studies of RK-33 in mice • Following injection of 20 mg/kg of RK-33, twice a week for 7 weeks, extensive histopathological examination was carried out following necropsy. Identical patterns were observed both in the control and in the treated mice (n = 2). Samples were stained with H&E. Scale bar is 50 μm. • Pharmacokinetics of RK-33 in SCID mice at various time intervals. Results are mean ± SD from 5 mice. LC-MS/MS method was used to determine concentration of RK-33 in mouse plasma and tissue. • Liquid chromatography–mass spectrometry (LC-MS/MS) analysis was performed to determine different metabolites of RK-33. • RK-33 and metabolites characterized by LC-MS/MS in human liver microsomes using the scan mode function of the LC-MS/MS. • HAPI cells were treated with RK-33 (10 μM), HA14-1 (25 μM), or DMSO vehicle, followed by oligomycin (oligo, 0.5 μg/ml), FCCP (3 μM), and antimycin A (AA, 1 μM) while oxygen consumption rate (OCR) was measured. Pyruvate (10 mM) was added in combination with FCCP to ensure that substrate supply was not rate-limiting for maximal OCR. Data are mean ± SD from 2 to 3 wells and representative of independent experiments performed with two different HAPI passages. OCR is baseline-normalized to the point prior to drug or vehicle addition. • HAPI microglial cells were incubated for 1 h in glucose-free XF24 assay medium that was supplemented with 2-deoxyglucose (50 mM) and pyruvate (10 mM). RK-33 (10 μM), oligomycin (0.5 μg/ml), or vehicle control was additionally present as indicated. Results are mean ± SD from 12 replicates pooled from experiments using two consecutive passages. Significance was assessed by two-sided, unpaired t-test. […]
Oxygen consumption measurements were performed using an XF24 Extracellular Flux Analyzer (Seahorse Bioscience, Billerica, MA) as previously described (Wu et al, [2007]; Clerc & Polster, [2012]). […] The ATP bioluminescent somatic cell assay kit (Sigma-Aldrich) was employed for the determination of ATP levels by luminescence using a FLUOstar OPTIMA multimodal plate reader (BMG LABTECH, Inc., Cary, NC). […]

[2] = tested on: HAPI cells; assay type: cell-based, rat; details: 0.5 μg/ml, 1 h

## CCOC(=O)C1=C(N)Oc2ccc(Br)cc2C1C(C#N)C(=O)OCC (stereo not shown) [HA14-1]
[1]; 25 μM, positive control
  OCR measured in the presence of FCCP: decreased OCR measured in the presence of FCCP
  oligomycin-insensitive oxygen consumption: elevated oligomycin-insensitive oxygen consumption

## CCCCCC[C@H]1C(=O)O[C@H](C)[C@H](NC(=O)c2cccc(NC=O)c2O)C(=O)O[C@@H](C)[C@@H]1OC(=O)CC(C)C [antimycin A]
[1]; 1 μM
  oxygen consumption in the presence of all drugs: potently inhibited

## CC[C@H]1/C=C/C=C/C[C@@H](C)[C@H](O)[C@@](C)(O)C(=O)[C@@H](C)[C@H](O)[C@@H](C)C(=O)[C@@H](C)[C@H](O)[C@@H](C)/C=C/C(=O)O[C@@H]2[C@H](C)[C@H](CC1)O[C@]1(CC[C@H](C)[C@H](C[C@@H](C)O)O1)[C@H]2C [oligomycin]
[2]
  decrease of total cellular ATP: approximately 70%
